Source: ChEMBL document CHEMBL1201862, “PubChem BioAssay data set” (2004)
Calls of active or inactive are those of the source.

How the values were obtained:
[1] = target: T1, Sentrin-specific protease 8 (Homo sapiens, UniProt Q96LD8); type: functional;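 further: luminescence read-out of SENP8 inhibition, dose-response confirmation following an ultra-high-throughput screen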
T1 sequence (Q96LD8 whole entry): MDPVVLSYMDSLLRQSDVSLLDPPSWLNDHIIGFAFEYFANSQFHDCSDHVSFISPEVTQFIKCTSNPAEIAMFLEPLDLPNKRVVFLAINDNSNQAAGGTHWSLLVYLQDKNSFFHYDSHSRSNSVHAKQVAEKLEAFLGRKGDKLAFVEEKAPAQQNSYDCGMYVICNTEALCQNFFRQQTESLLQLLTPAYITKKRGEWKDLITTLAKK

Streptokinase A = target: T2, Streptokinase A (Streptococcus pyogenes serotype M1, UniProt P10520); experiment: viability-normalized secreted streptokinase activity reduction – plasminogen activation absorbance, OD405, dose response (AID 1914); type: functional, Streptococcus pyogenes M1 GAS;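 further: secreted streptokinase activity via plasminogen activation per viability signal from cell pellet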
T2 sequence (P10520 whole entry): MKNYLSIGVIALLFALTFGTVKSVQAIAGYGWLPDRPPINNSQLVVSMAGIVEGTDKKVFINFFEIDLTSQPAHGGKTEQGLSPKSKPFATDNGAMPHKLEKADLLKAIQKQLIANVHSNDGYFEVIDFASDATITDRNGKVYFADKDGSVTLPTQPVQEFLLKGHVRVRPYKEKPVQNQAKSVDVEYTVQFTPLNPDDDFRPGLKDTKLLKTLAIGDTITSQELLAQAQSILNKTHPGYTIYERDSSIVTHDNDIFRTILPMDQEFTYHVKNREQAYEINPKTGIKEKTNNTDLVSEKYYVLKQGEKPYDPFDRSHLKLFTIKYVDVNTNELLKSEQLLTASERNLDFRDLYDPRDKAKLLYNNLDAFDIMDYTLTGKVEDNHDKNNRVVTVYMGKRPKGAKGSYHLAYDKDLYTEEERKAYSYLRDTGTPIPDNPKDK

Caspase-3 = target: T3, Caspase-3 (Homo sapiens, UniProt P42574); type: functional;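 further: Dose-response selectivity test against caspase-3 for candidate inhibitors of sentrin-specific proteases (SENPs)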
T3 sequence (P42574 whole entry): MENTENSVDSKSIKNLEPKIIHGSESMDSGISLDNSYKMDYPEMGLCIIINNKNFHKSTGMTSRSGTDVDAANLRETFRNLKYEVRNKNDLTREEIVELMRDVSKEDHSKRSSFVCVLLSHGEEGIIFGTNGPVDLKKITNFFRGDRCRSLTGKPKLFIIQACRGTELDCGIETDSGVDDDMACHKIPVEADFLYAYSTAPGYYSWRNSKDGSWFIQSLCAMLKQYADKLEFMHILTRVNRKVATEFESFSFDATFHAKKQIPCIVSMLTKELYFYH

[2] = tested on: Streptococcus sp. 'group A'; experiment: Streptococcus pyogenes SK(-)GAS viability under kanamycin – luminescence, BacTiterGlo, confirmation, counter-screen for streptokinase expression inhibitor project, dose response (AID 1900); type: functional, organism-based
Streptococcus = experiment: GAS UMAA2166 growth inhibition – luminescence, BacTiterGlo, counter-screen for streptokinase expression inhibitor project, dose response (AID 1915); type: functional, organism-based;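 further: potency for reduction of bacterial viability or growth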
[3] = target: T4, Sentrin-specific protease 7 (Homo sapiens, UniProt Q9BQF6); type: functional;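 further: Luminescence-based dose-response confirmation of ultra-high-throughput screening hits, measuring inhibition of SENP7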
T4 sequence (Q9BQF6 whole entry): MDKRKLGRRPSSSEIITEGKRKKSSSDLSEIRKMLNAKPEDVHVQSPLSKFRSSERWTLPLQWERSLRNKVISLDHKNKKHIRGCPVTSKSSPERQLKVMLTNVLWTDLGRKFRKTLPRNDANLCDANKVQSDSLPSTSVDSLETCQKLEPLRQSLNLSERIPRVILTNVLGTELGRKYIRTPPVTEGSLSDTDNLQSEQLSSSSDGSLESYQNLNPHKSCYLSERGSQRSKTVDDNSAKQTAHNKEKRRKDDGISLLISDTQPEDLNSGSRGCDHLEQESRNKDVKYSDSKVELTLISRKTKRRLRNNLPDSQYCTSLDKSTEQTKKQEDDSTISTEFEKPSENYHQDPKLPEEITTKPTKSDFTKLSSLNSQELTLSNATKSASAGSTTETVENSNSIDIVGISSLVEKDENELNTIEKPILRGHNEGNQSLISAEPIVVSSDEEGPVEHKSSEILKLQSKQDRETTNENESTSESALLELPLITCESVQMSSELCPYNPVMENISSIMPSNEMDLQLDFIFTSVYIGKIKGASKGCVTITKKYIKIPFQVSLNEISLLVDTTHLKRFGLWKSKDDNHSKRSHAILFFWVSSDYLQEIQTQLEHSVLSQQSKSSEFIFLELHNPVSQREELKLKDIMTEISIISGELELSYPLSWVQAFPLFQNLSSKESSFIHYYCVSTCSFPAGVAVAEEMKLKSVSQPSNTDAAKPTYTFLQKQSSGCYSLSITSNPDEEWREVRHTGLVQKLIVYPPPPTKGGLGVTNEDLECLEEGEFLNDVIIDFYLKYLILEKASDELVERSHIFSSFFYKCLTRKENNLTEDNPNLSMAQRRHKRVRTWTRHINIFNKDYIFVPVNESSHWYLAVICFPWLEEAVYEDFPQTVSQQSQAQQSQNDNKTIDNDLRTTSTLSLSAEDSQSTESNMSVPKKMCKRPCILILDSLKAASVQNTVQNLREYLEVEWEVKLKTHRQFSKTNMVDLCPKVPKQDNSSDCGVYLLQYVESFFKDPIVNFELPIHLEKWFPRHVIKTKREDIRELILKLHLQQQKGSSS

[4] = target: T5, Sentrin-specific protease 6 (Homo sapiens, UniProt Q9GZR1); type: functional;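 further: Luminescence-based dose-response confirmatory assay of SENP6 inhibition, following up an ultra-high-throughput screen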
T5 sequence (Q9GZR1 whole entry): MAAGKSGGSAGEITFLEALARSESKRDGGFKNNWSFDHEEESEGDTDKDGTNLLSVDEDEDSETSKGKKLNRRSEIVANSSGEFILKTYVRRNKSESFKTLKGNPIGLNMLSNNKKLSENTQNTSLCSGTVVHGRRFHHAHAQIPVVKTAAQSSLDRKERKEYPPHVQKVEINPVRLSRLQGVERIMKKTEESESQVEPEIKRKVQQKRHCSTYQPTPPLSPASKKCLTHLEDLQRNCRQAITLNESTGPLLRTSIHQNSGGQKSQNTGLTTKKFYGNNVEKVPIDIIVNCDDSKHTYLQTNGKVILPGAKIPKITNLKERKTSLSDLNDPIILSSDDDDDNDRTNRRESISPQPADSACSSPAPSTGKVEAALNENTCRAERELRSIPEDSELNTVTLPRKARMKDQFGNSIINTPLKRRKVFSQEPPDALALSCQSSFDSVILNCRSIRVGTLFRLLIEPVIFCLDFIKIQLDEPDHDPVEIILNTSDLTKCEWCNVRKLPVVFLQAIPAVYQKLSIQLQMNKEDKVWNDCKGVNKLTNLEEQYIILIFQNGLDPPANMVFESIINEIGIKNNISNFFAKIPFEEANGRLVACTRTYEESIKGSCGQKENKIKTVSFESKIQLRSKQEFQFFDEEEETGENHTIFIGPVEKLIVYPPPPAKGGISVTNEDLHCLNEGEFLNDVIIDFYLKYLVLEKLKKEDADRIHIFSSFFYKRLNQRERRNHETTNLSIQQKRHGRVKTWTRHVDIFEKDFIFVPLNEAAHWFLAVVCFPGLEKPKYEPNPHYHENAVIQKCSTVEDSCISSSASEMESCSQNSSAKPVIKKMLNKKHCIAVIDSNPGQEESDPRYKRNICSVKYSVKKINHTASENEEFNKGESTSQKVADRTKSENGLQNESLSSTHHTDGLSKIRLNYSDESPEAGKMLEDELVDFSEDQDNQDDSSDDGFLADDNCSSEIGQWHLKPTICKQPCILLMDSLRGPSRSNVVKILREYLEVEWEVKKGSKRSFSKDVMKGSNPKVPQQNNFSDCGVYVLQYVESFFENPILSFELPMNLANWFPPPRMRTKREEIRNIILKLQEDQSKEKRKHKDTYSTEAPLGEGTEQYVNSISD

[5] = fluconazole-exposed Candida albicans growth modulators – fluorescence, retest, confirmation (AID 2467); type: functional, cell-based
[6] = NIH-3T3 fibroblast cytotoxicity, dose response, cytotoxicity control, cell-based, fluorescence, Alamar Blue, secondary assay (AID 2327); type: functional;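 further: NIH-3T3 mouse fibroblasts cultured with fluconazole at 8 µg/mL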
[7] = target: T6, Eukaryotic translation initiation factor 2-alpha kinase 3 (Homo sapiens, UniProt Q9NZJ5); experiment: Counterscreen assay for PERK inhibitors: Dose response cell-based high throughput screening assay to measure inhibition of PERK at 6 hours. [Related pubchem assays: 1522, 1416 ]; type: functional
T6 sequence (Q9NZJ5 whole entry): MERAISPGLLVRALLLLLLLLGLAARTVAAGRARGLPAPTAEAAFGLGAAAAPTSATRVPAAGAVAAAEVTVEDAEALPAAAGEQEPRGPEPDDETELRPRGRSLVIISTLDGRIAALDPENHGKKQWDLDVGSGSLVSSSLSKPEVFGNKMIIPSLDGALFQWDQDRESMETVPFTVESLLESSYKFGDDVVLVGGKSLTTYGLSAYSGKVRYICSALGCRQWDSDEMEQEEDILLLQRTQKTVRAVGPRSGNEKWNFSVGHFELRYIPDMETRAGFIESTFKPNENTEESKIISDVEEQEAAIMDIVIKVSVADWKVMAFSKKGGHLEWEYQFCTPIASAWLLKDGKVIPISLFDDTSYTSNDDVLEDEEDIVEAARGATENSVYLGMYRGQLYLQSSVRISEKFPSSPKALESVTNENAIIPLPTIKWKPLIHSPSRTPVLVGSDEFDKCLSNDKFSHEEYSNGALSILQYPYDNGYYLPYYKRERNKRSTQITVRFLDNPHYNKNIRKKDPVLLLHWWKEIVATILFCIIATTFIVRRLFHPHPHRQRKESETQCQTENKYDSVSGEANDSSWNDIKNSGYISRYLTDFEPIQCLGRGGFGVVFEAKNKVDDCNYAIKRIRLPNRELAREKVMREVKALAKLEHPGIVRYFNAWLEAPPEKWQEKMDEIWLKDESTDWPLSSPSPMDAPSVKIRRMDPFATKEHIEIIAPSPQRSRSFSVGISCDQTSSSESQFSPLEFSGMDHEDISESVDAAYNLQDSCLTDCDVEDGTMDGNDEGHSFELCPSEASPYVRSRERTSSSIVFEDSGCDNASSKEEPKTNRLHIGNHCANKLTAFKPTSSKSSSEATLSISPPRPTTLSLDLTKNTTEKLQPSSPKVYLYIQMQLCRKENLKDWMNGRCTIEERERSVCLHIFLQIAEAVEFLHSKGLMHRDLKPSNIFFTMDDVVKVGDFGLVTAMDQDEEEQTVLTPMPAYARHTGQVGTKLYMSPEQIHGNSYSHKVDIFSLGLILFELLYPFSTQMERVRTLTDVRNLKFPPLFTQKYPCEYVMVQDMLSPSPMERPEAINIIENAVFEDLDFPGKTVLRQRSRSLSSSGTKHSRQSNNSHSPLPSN

[8] = target: T6, Eukaryotic translation initiation factor 2-alpha kinase 3; experiment: Dose response cell-based high-throughput screening assay to measure PERK inhibition. [Related pubchem assays: 1416 ]; type: functional
[9] = blockers of HIV-1 envelope-mediated cell-cell fusion – cherry-pick, dose response (AID 652057); type: functional, cell-based
Nonstructural protein 1 = Nonstructural protein 1 (Influenza A virus, UniProt Q194T2); type: functional, Influenza A virus (A/California/07/2009(H1N1))
Nonstructural protein 1, sequence (Q194T2 whole entry): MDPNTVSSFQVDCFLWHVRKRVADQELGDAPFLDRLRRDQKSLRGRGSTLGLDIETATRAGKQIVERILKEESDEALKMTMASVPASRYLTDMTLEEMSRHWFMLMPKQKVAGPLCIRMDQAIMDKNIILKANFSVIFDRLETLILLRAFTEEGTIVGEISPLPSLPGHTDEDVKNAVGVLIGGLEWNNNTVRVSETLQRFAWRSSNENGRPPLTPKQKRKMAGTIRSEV

Structure (SMILES) | IC50 [1] | IC50 (Caspase-3) | IC50 [3] | IC50 [4] | EC50 [7] | EC50 [8] | further results
Cc1ccc(-c2cc(-c3cccc(F)c3)[nH]n2)c(O)c1 | 23.8 µM (active) | 47.2 µM (active) | 6.27 µM (active) | 12.2 µM (active) | – | – | EC50 (Streptokinase A): 21.3 µM (active); EC50 [2]: 7.23 µM (active); EC50 (Streptococcus): > 150 µM (not active)
Oc1nc(Nc2ccccc2)sc1/C=C1\C=Nc2ccccc21 | > 100 µM (inactive) | 70.5 µM (active) | 6.51 µM (active) | > 100 µM (inactive) | – | – | EC50 (Streptokinase A): > 150 µM (not active); EC50 [5]: 1.73 µM (active); EC50 [2]: 17.3 µM (active); EC50 (Streptococcus): 26.6 µM (active); EC50 [6]: 17.9 µM (active)
Cc1nnc(O)nc1NCCN(C)C | – | – | – | – | > 55.7 µM (not active) | > 55.7 µM (not active) | –
Cn1cc([N+](=O)[O-])c(C(=O)NCc2ccco2)n1 | – | – | – | – | > 55.7 µM (not active) | > 55.7 µM (not active) | –
Cc1cc(C(=O)N=Nc2c(O)n(C)c3ccccc23)c(C)o1 | > 100 µM (inactive) | 2.71 µM (active) | 4.99 µM (active) | 4.84 µM (active) | – | – | –
CCOc1cc(C2NC(S)=NC(C)=C2C(=O)Nc2ccc(OC)cc2)ccc1O (stereo not given) | – | – | – | – | > 55.7 µM (not active) | > 55.7 µM (not active) | –
C[C@@H]1CN([C@H](C)CO)C(=O)c2cccc(NS(=O)(=O)c3ccc(F)cc3)c2O[C@@H]1CN(C)Cc1ccc(C(F)(F)F)cc1 | – | – | – | – | – | – | AC50 [9]: < 0.26 µM (active)
O=[N+]([O-])c1ccc(C2NS(=O)(=O)N=C3CCCCCN32)cc1 (stereo not given) | – | – | – | – | > 55.7 µM (not active) | > 55.7 µM (not active) | –
CN(C)c1ccc(N=Nc2cccc3ccoc23)cc1 | 8.97 µM (active) | 14.8 µM (active) | 3.81 µM (active) | 8.07 µM (active) | – | – | IC50 (Nonstructural protein 1): 39.3 µM (active)
Cc1ccc(COc2ccc(/C=N/O)cc2)cc1 | 23.5 µM (active) | 17.2 µM (active) | 5.63 µM (active) | 14.6 µM (active) | – | – | –
O=C(CN1C(=O)COc2ccc(S(=O)(=O)N3CCOCC3)cc21)NCc1ccccn1 | – | – | – | – | > 55.7 µM (not active) | > 55.7 µM (not active) | –
